These results are taken from PMC9965625, “Endocannabinoid 2-Arachidonoylglycerol Synthesis and Metabolism at Neuronal Nuclear Matrix Fractions Derived from Adult Rat Brain Cortex” (International Journal of Molecular Sciences, 2023).

The target of this experiment is T1, α/β-hydrolase domain 12 protein (ABHD12) (Rattus norvegicus, UniProt Q6AYT7).
T1 construct: native enzyme in nuclear matrix fraction of adult rat brain cortex
T1 sequence (Q6AYT7 1-398): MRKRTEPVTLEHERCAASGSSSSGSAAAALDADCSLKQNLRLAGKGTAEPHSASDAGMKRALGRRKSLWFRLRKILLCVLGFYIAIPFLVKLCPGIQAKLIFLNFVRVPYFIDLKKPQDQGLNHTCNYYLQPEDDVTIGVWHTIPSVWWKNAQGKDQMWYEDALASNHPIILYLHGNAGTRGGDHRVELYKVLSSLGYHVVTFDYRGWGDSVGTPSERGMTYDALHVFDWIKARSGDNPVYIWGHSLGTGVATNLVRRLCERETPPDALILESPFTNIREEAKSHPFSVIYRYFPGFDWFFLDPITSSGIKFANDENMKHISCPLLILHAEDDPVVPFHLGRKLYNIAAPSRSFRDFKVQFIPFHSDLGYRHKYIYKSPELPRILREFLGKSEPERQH
As to the kind of experiment: LC/MS/MS of arachidonic acid formed from […] exogenous 2-AG in nuclear matrix fraction, blocked by MAFP. In kind it is cell-based.

`CCCCC/C=C\C/C=C\C/C=C\C/C=C\CCCC(=O)OC(CO)CO` [2-AG]: the “LC/MS/MS of arachidonic acid formed from 10 μM exogenous 2-AG in nuclear matrix” value is “ABHD12 is the main responsible for the hydrolysis of 2-AG in the nuclear matrix”.
